In general, IC50 refers to the concentration that gives 50% inhibition.

The target in the assay is T1, Recombinant human HSP90α (Homo sapiens, UniProt P07900).
T1 construct: host or cells: E. coli
Description: HSP90 radioligand filter binding test ([3H]17AAG competition). Particulars: radioligand [3H]17AAG 0.08 μM; HSP90 1.5 μg/assay; 22° C., 30 min; read-out: HSP90 inhibition IC50. An excerpt:
The binding of geldanamycin or 17-allylamino-17-demethoxygeldanamycin (17AAG) to HSP90 and competitive inhibition thereof can be utilised in order to determine the inhibitory activity of the compounds according to the invention (Carreras et al. 2003, Chiosis et al. 2002).
In the specific case, a radioligand filter binding test is used. The radioligand used here is tritium-labelled 17-allylaminogeldanamycin, [3H]17AAG. This filter binding test allows a targeted search for inhibitors which interfere with the ATP binding site.
Recombinant human HSP90α (E. coli expressed, 95% purity);
[3H]17AAG (17-allylaminogeldanamycin, [allylamino-2,3-^3H. Specific activity: 1.11×10^12 Bq/mmol (Moravek, MT-1717);
HEPES filter buffer (50 mM HEPES, pH 7.0, 5 mM MgCl2, BSA 0.01%) Multiscreen FB (1 μm) filter plate (Millipore, MAFBNOB 50).
The 96-well microtitre filter plates are firstly irrigated and coated with 0.1% of polyethylenimine.
The test is carried out under the following conditions:
Reaction temperature 22° C.
Reaction time: 30 min., shaking at 800 rpm
50 mM HEPES HCl, pH 7.0, 5 mM MgCl2, 0.01% (w/v) of BSA
At the end of the reaction, the supernatant in the filter plate is removed by suction with the aid of a vacuum manifold (Multiscreen Separation System, Millipore), and the filter is washed twice.
The filter plates are then measured in a beta counter (Microbeta, Wallac) with scintillator (Microscint 20, Packard).
“% of control” is determined from the “counts per minutes” values, and the IC-50 value of a compound is calculated therefrom.
As to `CN1CCN(C(=O)Cc2ccc3nc(N)nc(C(=O)N4Cc5ccccc5C4)c3c2)CC1` [Compound A17, 2-[2-Amino-4-(isoindoline-2-carbonyl)quinazolin-6-yl]-1-(4-methylpiperazin-1-yl)ethanone], the half-inhibitory concentration (IC50) lay within 1000 to 10000 nM.

As to `Nc1nc(C(=O)N2Cc3ccccc3C2)c2cc(CC(=O)N3CCNCC3)ccc2n1` [Compound A18, 2-[2-amino-4-(isoindoline-2-carbonyl)quinazolin-6-yl]-1-piperazin-1-ylethanone], the IC50 is > 10000 nM.

In the case of `CN(Cc1cncn1C)C(=O)Cc1ccc2nc(N)nc(C(=O)N3Cc4ccccc4C3)c2c1` [Compound A19], the IC50 was 1000 to 10000 nM.

For the molecule `CC(C)(C)NC(=O)C1(c2ccc3nc(N)nc(C(=O)N4Cc5ccccc5C4)c3c2)CC1` [Compound A20, 1-[2-Amino-4-(isoindoline-2-carbonyl)quinazolin-6-yl]-N-tert-butylcyclopropanecarboxamide], the IC50 was 10 to 1000 nM.

In the case of `CCNC(=O)C1(c2ccc3nc(N)nc(C(=O)N4Cc5ccccc5C4)c3c2)CC1` [Compound A21, 1-[2-Amino-4-(isoindoline-2-carbonyl)quinazolin-6-yl]-N-ethylcyclopropanecarboxamide], the IC50 lay within 10 to 1000 nM.

On to `CN(C)C(=O)C1(c2ccc3nc(N)nc(C(=O)N4Cc5ccccc5C4)c3c2)CC1` [Compound A22, 1-[2-Amino-4-(isoindoline-2-carbonyl)quinazolin-6-yl]-N,N-dimethylcyclopropanecarboxamide], for which the IC50 was 1000 to 10000 nM.

As for `CCN(C)C(=O)C1(c2ccc3nc(N)nc(C(=O)N4Cc5ccccc5C4)c3c2)CC1` [Compound A23, 1-[2-Amino-4-(isoindoline-2-carbonyl)quinazolin-6-yl]-N-ethyl-N-methylcyclopropanecarboxamide], the IC50 lay within 1000 to 10000 nM.

Take `CCN(CC)C(=O)C1(c2ccc3nc(N)nc(C(=O)N4Cc5ccccc5C4)c3c2)CC1` [Compound A24, 1-[2-Amino-4-(isoindoline-2-carbonyl)quinazolin-6-yl]-N,N-diethylcyclopropanecarboxamide]: the IC50 fell in the range of 1000 to 10000 nM.

For `CN(CCO)C(=O)C1(c2ccc3nc(N)nc(C(=O)N4Cc5ccccc5C4)c3c2)CC1` [Compound A25, 1-[2-Amino-4-(isoindoline-2-carbonyl)quinazolin-6-yl]-N-(2-hydroxyethyl)-N-methylcyclopropanecarboxamide], the IC50 is 1000 to 10000 nM.

Regarding `CCN(CCO)C(=O)C1(c2ccc3nc(N)nc(C(=O)N4Cc5ccccc5C4)c3c2)CC1` [Compound A26, 1-[2-Amino-4-(isoindoline-2-carbonyl)quinazolin-6-yl]-N-(2-hydroxyethyl)-N-ethylcyclopropanecarboxamide], the IC50 was 1000 to 10000 nM.

Consider `Nc1nc(C(=O)N2Cc3ccccc3C2)c2cc(C3(C(=O)N4CCCC4)CC3)ccc2n1` [Compound A27, [2-Amino-6-[1-(pyrrolidine-1-carbonyl)cyclopropyl]quinazolin-4-yl]isoindolin-2-ylmethanone], for which the concentration for half-maximal inhibition (IC50) was 1000 to 10000 nM.

With `CCN(CCN(C)C)C(=O)C1(c2ccc3nc(N)nc(C(=O)N4Cc5ccccc5C4)c3c2)CC1` [Compound A28, 1-[2-Amino-4-(isoindoline-2-carbonyl)quinazolin-6-yl]-N-(2-dimethylaminoethyl)-N-ethylcyclopropanecarboxamide], the IC50 lay within 1000 to 10000 nM.

For `CC(C)(C)NC(=O)C1(c2ccc3nc(N)nc(C(=O)N4Cc5ccccc5C4)c3c2)CCC1` [Compound A29, 1-[2-Amino-4-(isoindoline-2-carbonyl)quinazolin-6-yl]-N-tert-butylcyclobutanecarboxamide], the IC50 was in the range of 10 to 1000 nM.

In the case of `CNC(=O)C1(c2ccc3nc(N)nc(C(=O)N4Cc5ccccc5C4)c3c2)CCC1` [Compound A31, 1-[2-Amino-4-(isoindoline-2-carbonyl)quinazolin-6-yl]-N-methylcyclobutanecarboxamide], the IC50 was 10 to 1000 nM.

For the molecule `CCCNC(=O)C1(c2ccc3nc(N)nc(C(=O)N4Cc5ccccc5C4)c3c2)CCC1` [Compound A32, 1-[2-Amino-4-(isoindoline-2-carbonyl)quinazolin-6-yl]-N-propylcyclobutanecarboxamide], the IC50 fell in the range of 10 to 1000 nM.

For `NC(=O)CNC(=O)C1(c2ccc3nc(N)nc(C(=O)N4Cc5ccccc5C4)c3c2)CCC1` [Compound A33, 1-[2-Amino-4-(isoindoline-2-carbonyl)quinazolin-6-yl]-N-(2-amino-2-oxoethyl)cyclobutanecarboxamide], the IC50 fell in the range of 10 to 1000 nM.

Turning to `CC(C)CNC(=O)C1(c2ccc3nc(N)nc(C(=O)N4Cc5ccccc5C4)c3c2)CCC1` [Compound A34, 1-[2-Amino-4-(isoindoline-2-carbonyl)quinazolin-6-yl]-N-isobutylcyclobutanecarboxamide], the half-maximal inhibitory concentration (IC50) is 10 to 1000 nM.

Regarding `CC(C)(C)NC(=O)C(C)(C)c1ccc2nc(N)nc(C(=O)N3Cc4ccccc4C3)c2c1` [Compound A35, 2-[2-Amino-4-(isoindoline-2-carbonyl)quinazolin-6-yl]-N-tert-butyl-2-methylpropanamide], the IC50 is 10 to 1000 nM.

Consider `CCNC(=O)C(C)(C)c1ccc2nc(N)nc(C(=O)N3Cc4ccccc4C3)c2c1` [Compound A36, 2-[2-Amino-4-(isoindoline-2-carbonyl)quinazolin-6-yl]-N-ethyl-2-methylpropanamide], for which the IC50 was 10 to 1000 nM.

For the molecule `CC(C)CNC(=O)C(C)(C)c1ccc2nc(N)nc(C(=O)N3Cc4ccccc4C3)c2c1` [Compound A37, 2-[2-Amino-4-(isoindoline-2-carbonyl)quinazolin-6-yl]-N-isobutyl-2-methylpropanamide], the IC50 is 10 to 1000 nM.

For the molecule `CCCNC(=O)C(C)(C)c1ccc2nc(N)nc(C(=O)N3Cc4ccccc4C3)c2c1` [Compound A38, 2-[2-Amino-4-(isoindoline-2-carbonyl)quinazolin-6-yl]-N-propyl-2-methylpropanamide], the half-inhibitory concentration (IC50) lay in the range of 10 to 1000 nM.

In the case of `CC(C)(C(=O)NCC(N)=O)c1ccc2nc(N)nc(C(=O)N3Cc4ccccc4C3)c2c1` [Compound A39, 2-[2-Amino-4-(isoindoline-2-carbonyl)quinazolin-6-yl]-N-(2-amino-2-oxoethyl)-2-methylpropanamide], the IC50 was 10 to 1000 nM.

On to `CC(C)(C(=O)NCCC#N)c1ccc2nc(N)nc(C(=O)N3Cc4ccccc4C3)c2c1` [Compound A40, 2-[2-Amino-4-(isoindoline-2-carbonyl)quinazolin-6-yl]-N-(2-cyanoethyl)-2-methylpropanamide], for which the IC50 lay within 1000 to 10000 nM.

On to `CNC(=O)C(CCC(F)F)c1ccc2nc(N)nc(C(=O)N3Cc4ccccc4C3)c2c1` (stereo not drawn) [Compound A41, 2-[2-Amino-4-(isoindoline-2-carbonyl)quinazolin-6-yl]-N-methyl-5,5-difluoropentanamide], for which the IC50 is 10 to 1000 nM.

As for `CCNC(=O)C(CCC(F)F)c1ccc2nc(N)nc(C(=O)N3Cc4ccccc4C3)c2c1` (stereo not drawn) [Compound A42, 2-[2-Amino-4-(isoindoline-2-carbonyl)quinazolin-6-yl]-N-ethyl-5,5-difluoropentanamide], the 50% inhibitory concentration (IC50) is 1000 to 10000 nM.

Turning to `CCCC(C(=O)NCC)c1ccc2nc(N)nc(C(=O)N3Cc4ccccc4C3)c2c1` (stereo not drawn) [Compound A43, 2-[2-Amino-4-(isoindoline-2-carbonyl)quinazolin-6-yl]-N-ethylpentanamide], the IC50 lay within 10 to 1000 nM.

`CCCCC(C(=O)NCC)c1ccc2nc(N)nc(C(=O)N3Cc4ccccc4C3)c2c1` (stereo not drawn) [Compound A44, 2-[2-Amino-4-(isoindoline-2-carbonyl)quinazolin-6-yl]-N-ethylhexanamide]: the IC50 fell in the range of 10 to 1000 nM.

For `CCNC(=O)C(CCC(C)C)c1ccc2nc(N)nc(C(=O)N3Cc4ccccc4C3)c2c1` (stereo not drawn) [Compound A45, 2-[2-Amino-4-(isoindoline-2-carbonyl)quinazolin-6-yl]-N-ethyl-5-methyl-hexanamide], the IC50 is 10 to 1000 nM.

Regarding `CCNC(=O)C(CC(C)C)c1ccc2nc(N)nc(C(=O)N3Cc4ccccc4C3)c2c1` (stereo not drawn) [Compound A46, 2-[2-Amino-4-(isoindoline-2-carbonyl)quinazolin-6-yl]-N-ethyl-4-methylpentanamide], the IC50 is 10 to 1000 nM.

`CCNC(=O)C(c1ccc2nc(N)nc(C(=O)N3Cc4ccccc4C3)c2c1)C(C)CC` (stereo not drawn) [Compound A47, 2-[2-Amino-4-(isoindoline-2-carbonyl)quinazolin-6-yl]-N-ethyl-3-methylpentanamide]: the IC50 lay in the range of 10 to 1000 nM.

Regarding `CCNC(=O)C(c1ccc2nc(N)nc(C(=O)N3Cc4ccccc4C3)c2c1)C(C)C` (stereo not drawn) [Compound A48, 2-[2-Amino-4-(isoindoline-2-carbonyl)quinazolin-6-yl]-N-ethyl-3-methyl-butanamide], the IC50 fell in the range of 10 to 1000 nM.

In the case of `C=C(CC(C(=O)NCC)c1ccc2nc(N)nc(C(=O)N3Cc4ccccc4C3)c2c1)C(N)=O` (stereo not drawn) [Compound A50, 2-[2-Amino-4-(isoindoline-2-carbonyl)quinazolin-6-yl]-N′-ethyl-2-methylene-pentanediamide], the IC50 was in the range of 1000 to 10000 nM.

With `CCNC(=O)C1(c2ccc3nc(N)nc(C(=O)N4Cc5ccccc5C4)c3c2)CCCC1` [Compound A53, 1-[2-Amino-4-(isoindoline-2-carbonyl)quinazolin-6-yl]-N-ethylcyclopentanecarboxamide], the concentration for half-maximal inhibition (IC50) fell in the range of 10 to 1000 nM.

These data come from patent publication US8906930B2, “Quinazoline derivatives” (Merck Patent GmbH, priority 2009, dated 2014).
